Data taken from patent publication US20210363170A1, “4'-THIO-NUCLEOTIDE AND -NUCLEOSIDE PRODRUGS FOR THE TREATMENT OF CANCER” (Southern Research Institute, priority 2018, published 2021).
Like-named read-outs stand apart in the source and are kept apart here.

Key:
Format in all cases: cell-based
KG-1a cells = test: Cell viability assay (CellTiter Glo, 72 hours) in KG-1a cells; details: read-out: Cell Line IC50 (μM) KG-1a
Procedure: (§1) KG1a (CCL-246.1, ATCC) and CCRF-CEM (CCL-199, ATCC) cells were grown in RPMI-1640 media containing 10% FBS in T-75 flasks to a density of 1×10^6 cells per mL. Exponentially gown cells were used for the assay. Day 1: 7.5×10^3 cells were seeded in each well of 96 well plate. Day 2: Cells were treated with serial dilutions of each compound (starting 20 uM) or with DMSO as control for 72 hours. Day 5: CellTiter Glo (G9241, Promega) was added to the media of each well and measured by plate reader (Synergy 4, Biotek). Data analysis: Using GraphPad Prism 7 (GraphPad).

CCRF-CEM cells = test: Cell viability assay (CellTiter Glo, 72 hours) in CEM cells; details: read-out: Cell Line IC50 (μM) CEM
Procedure: as §1

DNMT-1 = test: Western blot analysis of DNMT-1 in CEM cells; details: DNMT-1 depletion in CEM cells, 96 hours
Procedure: Cells were treated with serial dilutions of each compound (starting 100 uM for HCT-116 and NCI-H23 cells, and 20 uM for KG-1a and CCRF-CEM cells) or with DMSO as control for 96 hours. Cell lysates were collected and proteins were separated with a SDS-PAGE gel, transferred to a nitrocellulose membrane, blocked in 5% non-fat milk in TBS-T, and probed with anti DNMT-1 (1:7000) rabbit polyclonal antibodies (cat #ab19905, Abcam) in 5% non-fat milk in TBS-T overnight. Membranes were washed three times with TBS-T. The anti-rabbit IgG (7074p2, Cell Signaling) secondary antibody was added at a concentration of 1:5000 in 5% non-fat milk in TBS-T for two hours in room temperature. Membranes were then washed three times with TBS-T, 5 minutes each time. Membranes were then incubated with SuperSignal West Pico Chemiluminescent Substrate (#34080 Thermo) and exposed onto film. Membranes were stripped with stripping buffer (#21059, Thermo) and re-probed with mouse anti tubulin 1:10,000 (T9026, Sigma) and anti-mouse IgG 1:5,000 (70′76p2, Cell Signaling).

CEM cells [1] = test: Nucleoside transporter (hENT-1) activity: CEM cell viability with or without the hENT-1 inhibitor dipyridamole; details: for IC50: CEM cells, 72 hours
Procedure: 7.5×10^3 cells/well were plated in a 96 well plate in duplicate. Either compound 2 and Aza-T-dCyd were dosed at a 1:5 10-point serial dilution with a top dose of 5 μM in the presence of 5 μM Dipyridamole (DPD, Sigma Cat #: D9766 CAS 58-32-2), a hENT-1 inhibitor. Cells were cultured in the presence of compound for 72 hours. CellTiter Glo (G9241, Promega) was added to the media of each well and measured by a plate reader (Synergy 4, Biotek). The results were analyzed by GraphPad Prism 7 (GraphPad).

HCT-116 cells = test: Cytidine deaminase (CDA) activity: HCT-116 cell viability with or without the CDA inhibitor tetrahydrouridine; details: for IC50: HCT-116 cells, 72 hours
Procedure: […] cells/well were plated in a 96 well plate in duplicate. Tetrahydrouridine (THU), a Cytidine Deaminase inhibitor was dosed at 1:5 10-point serial dilution, with a top dose of 100 μM, as a control. […] Cells were cultured in the presence of compound for 72 hours and then assayed by cell titer glow for viability.

CEM cells [2] = test: Deoxycytidine kinase (dCK) activity: CEM cell viability with or without 2'-deoxycytidine; details: for IC50: CEM cells, 72 hours
Procedure: 7.5×10^3 cells/well were plated in a 96 well plate in duplicate. […] Cells were cultured in the presence of compound for 72 hours. CellTiter Glo (G9241, Promega) was added to the media of each well and measured by a plate reader (Synergy 4, Biotek). The results were analyzed by GraphPad Prism 7 (GraphPad).

Nc1ncn([C@H]2C[C@H](O)[C@@H](CO)S2)c(=O)n1 [Aza-T-dCyd, 5-aza-4′-Thio-2′-deoxycytidine, reference compound]
IC50 (KG-1a cells; Homo sapiens): 0.03 µM
IC50 (CCRF-CEM cells; Homo sapiens, CCRF-CEM): 0.03 µM
IC50 (DNMT-1): 380 nM
IC50 (CEM cells [1]; Homo sapiens, CCRF-CEM, with 5 μM dipyridamole (hENT-1 inhibitor), read-out: CEM IC50 (μM) With DPD (5 μM)): > 3 µM
IC50 (CEM cells [1]; Homo sapiens, CCRF-CEM, without dipyridamole, read-out: CEM IC50 (μM) Without DPD): 0.03 µM
IC50 (HCT-116 cells; Homo sapiens, with 20 μM tetrahydrouridine (CDA inhibitor), read-out: HCT-116 IC50 (μM) With THU (20 μM)): 0.7 µM
IC50 (HCT-116 cells; Homo sapiens, without tetrahydrouridine, read-out: HCT-116 IC50 (μM) Without THU): 7 µM
IC50 (CEM cells [2]; Homo sapiens, CCRF-CEM, with 20 μM 2'-deoxycytidine (dCK inhibitor), read-out: CEM IC50 (μM) With dCyd (20 μM)): 19 µM
IC50 (CEM cells [2]; Homo sapiens, CCRF-CEM, without 2'-deoxycytidine, read-out: CEM IC50 (μM) Without dCyd): 0.03 µM

2-ethylbutyl ((S)-(((2R,3S,5R)-5-(4-amino-2-oxo-1,3,5-triazin-1(2H)-yl)-3-hydroxytetrahydrothiophen-2-yl)methoxy)(phenoxy)phosphoryl)-L-alaninate [Compound 3]
IC50 (KG-1a cells): 1.5 µM
IC50 (CCRF-CEM cells): 0.16 µM
IC50 (DNMT-1): 620 nM
IC50 (CEM cells [1]; with 5 μM dipyridamole (hENT-1 inhibitor), read-out: CEM IC50 (μM) With DPD (5 μM)): 3.1 µM
IC50 (CEM cells [1]; without dipyridamole, read-out: CEM IC50 (μM) Without DPD): 0.35 µM
reliance on hENT-1 to enter the cancer cells (CEM cells [1]; conclusion in words from Table 3): does not significantly rely on hENT-1
IC50 (HCT-116 cells; with 20 μM tetrahydrouridine (CDA inhibitor), read-out: HCT-116 IC50 (μM) With THU (20 μM)): 12 µM
IC50 (HCT-116 cells; without tetrahydrouridine, read-out: HCT-116 IC50 (μM) Without THU): 8 µM
overcoming cytidine deaminase compared to parent drug (HCT-116 cells; conclusion in words from Table 4): did overcome CAD
IC50 (CEM cells [2]; with 20 μM 2'-deoxycytidine (dCK inhibitor), read-out: CEM IC50 (μM) With dCyd (20 μM)): 6.5 µM
IC50 (CEM cells [2]; without 2'-deoxycytidine, read-out: CEM IC50 (μM) Without dCyd): 0.3 µM
reliance on dCK activation compared to parent drug (CEM cells [2]; conclusion in words from Table 5): does not rely on dCK activation
